From patent US20170100396A1 (priority 2015, published 2017)

System: influenza A virus (IAV) A/Aichi/2/68 (H3N2)
Assay: microbe, parasite or virus in culture
Type: cell-based, influenza A virus in MDCK cells
Conditions: Influenza A virus, H3N2, MDCK, 48 h, read-out: CPE IC50

Structure (SMILES)	IC50 [µM]
CC(C)c1cnc2[nH]cc(C(=O)NCCCN3CCOCC3)c2n1	> 100
CC(C)c1cnc2[nH]cc(C(=O)NC3(C#N)CC3)c2n1	34.7
O=C(N[C@@H](C(=O)NCCc1ccc(Cl)cc1)C1CC1)c1c[nH]c2ncc(C3CC3)nc12	> 100
O=C(N[C@@H](C(=O)NCc1cccc(Cl)c1)C1CC1)c1c[nH]c2ncc(C3CC3)nc12	7.3
O=C(N[C@@H](C(=O)N1CC2(CCC2)C1)C1CC1)c1c[nH]c2ncc(C3CC3)nc12	> 100
CCN(C)C(=O)c1c[nH]c2ncc(C(C)C)nc12	> 100
Cc1ccc(CNC(=O)c2c[nH]c3ncc(C(C)C)nc23)nn1	139
O=C(N[C@@H](C(=O)NCc1ccc(Cl)cc1)C1CC1)c1c[nH]c2ncc(C3CC3)nc12	2.99
COC(=O)C1CC2(CC(NC(=O)[C@@H](CC(C)C)NC(=O)c3c[nH]c4ncc(C5CC5)nc34)C2)C1 (stereo partly shown)	> 100
O=C(N[C@@H](C(=O)NCc1ccncc1)C1CC1)c1c[nH]c2ncc(C3CC3)nc12	40.4
O=C(N[C@@H](C(=O)N1CCN(C2CCOCC2)CC1)C1CC1)c1c[nH]c2ncc(C3CC3)nc12	> 100
CC(C)c1cnc2[nH]cc(C(=O)N3CCC(F)(F)CC3)c2n1	> 100
N#CC(NC(=O)[C@H](NC(=O)c1c[nH]c2ncc(C3CC3)nc12)C1CC1)c1ccc(C(F)(F)F)cc1 (stereo partly shown)	> 10
CC(C)C[C@@H](NC(=O)c1c[nH]c2ncc(C3CC3)nc12)C(=O)NCCC(=O)NC1CCCC1	> 100
O=C(N[C@@H](C(=O)NCC(=O)N1CCOCC1)C1CC1)c1c[nH]c2ncc(C3CC3)nc12	> 100
CC(C)NC(=O)c1c[nH]c2ncc(-c3ccccc3C(F)(F)F)nc12	> 100
O=C(N[C@@H](C(=O)N1CCN(Cc2ccccc2)CC1)C1CC1)c1c[nH]c2ncc(C3CC3)nc12	41.9
O=C(NCC(=O)N1CCCC1)c1c[nH]c2ncc(Br)nc12	> 100
CC(C)c1cnc2[nH]cc(C(=O)NC3CCOC3(C)C)c2n1 (stereo not shown)	> 100
O=C(N[C@@H](C(=O)Nc1ccccc1)C1CC1)c1c[nH]c2ncc(C3CC3)nc12	> 100
O=C(N[C@@H](C(=O)N1CC(F)(F)C1)C1CC1)c1c[nH]c2ncc(C3CC3)nc12	> 100
COc1ccc(CCNC(=O)[C@H](NC(=O)c2c[nH]c3ncc(C4CC4)nc23)C2CC2)cc1	> 100
O=C(N[C@@H](C(=O)NC1CCCc2ccccc21)C1CC1)c1c[nH]c2ncc(C3CC3)nc12 (stereo partly shown)	> 100
CC(C)(NC(=O)c1c[nH]c2ncc(C3CC3)nc12)C(=O)N1CCCC1	> 100
O=C(N[C@@H](C(=O)N1CC2(COC2)C1)C1CC1)c1c[nH]c2ncc(C3CC3)nc12	> 100
CC(C)C[C@@H](NC(=O)c1c[nH]c2ncc(C3CC3)nc12)C(=O)NCC(=O)NC1CCCC1	> 100
COc1ccc(CNC(=O)[C@H](NC(=O)c2c[nH]c3ncc(C4CC4)nc23)C2CC2)cc1	10.3
O=C(N[C@@H](C(=O)NCc1ccc(OC(F)(F)F)cc1)C1CC1)c1c[nH]c2ncc(C3CC3)nc12	5.4
CC(C)c1cnc2[nH]cc(C(=O)NC(C)C(C)(C)O)c2n1 (stereo not shown)	12.2

Same assay, conditions: Influenza A virus, H3N2, read-out: % CPE reduction

Structure (SMILES)	inhibition at 25 µM [%]	inhibition at 5 µM [%]	inhibition at 50 µM [%]
CC(C)NC(=O)c1c[nH]c2ncc(-c3ccc(C4(C(=O)O)CC4)cc3)nc12	-8.7	–	–
O=C(N[C@@H](C(=O)NCC1CCOCC1)C1CCCCC1)c1c[nH]c2ncc(C3CC3)nc12	–	20.5	–
COC(=O)C1CCN(C(=O)[C@H](NC(=O)c2c[nH]c3ncc(C4CC4)nc23)C2CCCCC2)C1 (stereo partly shown)	–	-8.1	–
CC(NC(=O)[C@H](NC(=O)c1c[nH]c2ncc(C3CC3)nc12)C1CC1)c1ccccc1 (stereo partly shown)	–	2.7	–
O=C(O)c1cccc(CNC(=O)[C@H](NC(=O)c2c[nH]c3ncc(C4CC4)nc23)C2CC2)c1	–	–	-0.2
O=C(N[C@@H](C(=O)NCc1ccncn1)C1CCCCC1)c1c[nH]c2ncc(C3CC3)nc12	–	–	-2.2
NC(=O)C(NC(=O)c1c[nH]c2ncc(C3CC3)nc12)c1ccc(OC(F)(F)F)cc1 (stereo not shown)	–	-12.9	–
O=C(NCC(=O)N1CCCC1)c1c[nH]c2ncc(C3CC3)nc12	–	–	36.2
